{
  "source": "patent US12268687B2",
  "about": "“Compounds and uses thereof” (JANSSEN PHARMACEUTICA NV, priority 2020, dated 2025)",
  "key": {"SCD5": {"target": "SCD5 (Homo sapiens (Human), UniProt Q86SK9)", "sequence (Q86SK9 whole entry)": "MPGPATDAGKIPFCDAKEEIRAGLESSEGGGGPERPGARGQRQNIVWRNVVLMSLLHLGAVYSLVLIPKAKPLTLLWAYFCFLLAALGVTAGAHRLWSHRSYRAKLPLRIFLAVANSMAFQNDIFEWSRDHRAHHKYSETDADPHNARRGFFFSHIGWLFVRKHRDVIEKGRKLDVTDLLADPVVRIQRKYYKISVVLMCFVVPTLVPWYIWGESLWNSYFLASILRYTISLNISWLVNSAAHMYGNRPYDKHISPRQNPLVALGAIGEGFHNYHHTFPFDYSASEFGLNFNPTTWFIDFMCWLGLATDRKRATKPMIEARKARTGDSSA", "experiment": "Growth inhibition of yeast strain expressing human SCD5 as the sole desaturase", "type": "cell-based"}, "SCD1": {"target": "SCD1 (Homo sapiens (Human), UniProt O00767)", "sequence (O00767 whole entry)": "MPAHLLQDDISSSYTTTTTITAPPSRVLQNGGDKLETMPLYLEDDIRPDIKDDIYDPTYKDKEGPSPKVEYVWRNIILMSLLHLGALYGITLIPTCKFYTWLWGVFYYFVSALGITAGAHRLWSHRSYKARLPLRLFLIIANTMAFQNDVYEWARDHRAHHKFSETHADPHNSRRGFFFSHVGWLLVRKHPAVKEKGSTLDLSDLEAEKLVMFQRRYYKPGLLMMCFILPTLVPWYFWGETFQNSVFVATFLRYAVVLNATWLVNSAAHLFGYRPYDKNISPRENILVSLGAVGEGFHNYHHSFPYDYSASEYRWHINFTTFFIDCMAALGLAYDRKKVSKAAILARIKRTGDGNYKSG", "experiment": "Growth inhibition of yeast strain expressing human SCD1 as the sole desaturase", "type": "cell-based"}, "[1]": {"conditions": "ole1Δ yeast with human SCD5 plasmid, OD600 growth read at 40 h, top concentration 33.3 μM per method"}, "[2]": {"conditions": "ole1Δ yeast with human SCD1 plasmid, OD600 growth read at 40 h, top concentration 33.3 μM per method"}},
  "note": "Like-named read-outs stand apart in the source and are kept apart here.",
  "data": [
    {"compound": "Cn1nc(NC(=O)N2CCC(Oc3cccc(F)c3Cl)CC2)ccc1=O", "note": "[Compound 78, 4-(2-Chloro-3-fluorophenoxy)-N-(1-methyl-6-oxo-1,6-dihydropyridazin-3-yl)piperidine-1-carboxamide]", "values": [
      {"measurement": "IC50", "setting": "SCD5; [1]", "result": 10, "unit": "nM"},
      {"measurement": "IC50", "setting": "SCD1; [2]", "result": 170, "unit": "nM"}
    ]},
    {"compound": "Cn1nc(NC(=O)N2CCC(Cc3cc(F)cc(F)c3)CC2)ccc1=O", "note": "[Compound 51, 4-(3,5-difluorobenzyl)-N-(1-methyl-6-oxo-1,6-dihydropyridazin-3-yl)piperidine-1-carboxamide]", "values": [
      {"measurement": "IC50", "setting": "SCD5", "result": 60, "unit": "nM"},
      {"measurement": "IC50", "setting": "SCD1", "result": 680, "unit": "nM"}
    ]},
    {"compound": "6-(3-(4-(3,5-difluorobenzyl)piperidin-1-yl)-1,2,4-oxadiazol-5-yl)-2-methylpyridazin-3(2H)-one [Compound 115]", "values": [
      {"measurement": "IC50", "setting": "SCD5; [1]", "result": 10, "unit": "nM"},
      {"measurement": "IC50", "setting": "SCD1; [2]", "result": 450, "unit": "nM"}
    ]},
    {"compound": "Cn1cc(NC(=O)N2CCC(Cc3cc(F)cc(F)c3)CC2)ccc1=O", "note": "[Compound 9]", "values": [
      {"measurement": "IC50", "setting": "SCD5; [1]", "result": 4220, "unit": "nM"},
      {"measurement": "IC50", "setting": "SCD1; [2]", "result": 14400, "unit": "nM"}
    ]},
    {"compound": "Cn1nc(NC(=O)N2CCC(Oc3cccc(Cl)c3F)CC2)ccc1=O", "note": "[Compound 77, 4-(3-chloro-2-fluorophenoxy)-N-(1-methyl-6-oxo-1,6-dihydropyridazin-3-yl)piperidine-1-carboxamide]", "values": [
      {"measurement": "IC50", "setting": "SCD5; [1]", "result": 740, "unit": "nM"},
      {"measurement": "IC50", "setting": "SCD1; [2]", "result": 910, "unit": "nM"}
    ]},
    {"compound": "Cn1nc(NC(=O)C2CCN(Cc3cccc(Cl)c3)CC2)ccc1=O", "note": "[Compound 136, 1-(3-chlorobenzyl)-N-(1-methyl-6-oxo-1,6-dihydropyridazin-3-yl)piperidine-4-carboxamide]", "values": [
      {"measurement": "IC50", "setting": "SCD5; [1]", "result": "> 45000", "unit": "nM"},
      {"measurement": "IC50", "setting": "SCD1; [2]", "result": "> 45000", "unit": "nM"}
    ]}
  ]
}
